Test results taken from patent US20230346785A1, “4-PYRROLIDIN-1-Yl-5-P-TOLYL-THIENO[2,3-D] PYRIMIDINE FOR USE IN THE TREATMENT OF AGING-ASSOCIATED AND PREMATURE AGING DISEASES THROUGH RESTORED CHROMOSOMAL STABILITY AND INHIBITION OF CELLULAR SENESCENCE” (IBMC - INSTITUTO DE BIOLOGIA MOLECULAR E CELULAR, priority 2020, published 2023).

Experiments:
Format in all cases: cell-based
[1] = test system: elderly human dermal fibroblasts (HDF); test: 53BP1/p21 double immunostaining senescence biomarkers; details: 1 µM
Procedure: (§1) Human dermal fibroblasts (HDFs) retrieved from skin samples of neonatal (No. GM21811, Coriell Institute; No. DFM021711A, Zen Bio) and octogenarian (No. AG07135; AG13993; AG09271; AG10884; all from Coriell Institute) were used. All donors were reported as “healthy”. For all experiments, HDFs were seeded at 1x10^4 cells per cm2 of growth area in minimal essential medium Eagle-Earle (MEM) supplemented with 15% fetal bovine serum (FBS), 2 mM L-glutamine, and 1x antibiotic-antimycotic (all from Gibco, Thermo Fisher Scientific). Only early passage dividing fibroblasts (up to passage 3-5) with cumulative population doubling level PDL < 24 were used.
For immunofluorescence, fibroblasts were grown on sterilized glass coverslips coated with 50 µg/ml fibronectin (F1141, Sigma-Aldrich) and fixed with 4% paraformaldehyde in PBS for 20 min. […]
(§2) For image analysis, both live-cell phenotypes (mitotic duration, lagging chromosomes) and fixed-cell experiments (protein intensity, k-fiber intensity, KT distances, FISH, MN counts, cGAS positivity and SA biomarkers) were blindly quantified using ImageJ/Fiji software. […] DNA aggregates co-localizing with cGAS were scored as MN positive for cGAS. For the analysis of SA biomarkers (53bpl/p21 and SA-β-galactosidase), fluorescence intensity thresholds were set and used consistently for all samples within each experiment. […]

[2] = test system: elderly human dermal fibroblasts (HDF); test: Micronuclei (MN) counts; details: 1 µM, 24-hour exposure (FIG. 4F)
Procedure: as §1, §2

[3] = test system: neonatal (N) human dermal fibroblasts (HDF); test: Mitotic duration by long-term phase-contrast time-lapse microscopy, neonatal cells; details: 1 µM, 24 hrs (FIG. 4A)
Procedure: as §1, §2
(§3) FIG. 4: Small molecule agonist of MCAK activity UMK57 rescues age-associated CIN and delays senescence. […] (D) Aneusomy index of chromosomes 7, 12 and 18 measured by interphase FISH analysis. […]

[4] = test system: elderly human dermal fibroblasts (HDF); test: Mitotic duration by long-term phase-contrast time-lapse microscopy, elderly cells
Procedure: as §1, §2, §3

[5] = test system: elderly human dermal fibroblasts (HDF); test: Calcium-stable k-fiber intensity analysis in metaphase; details: 1 µM
Procedure: Human dermal fibroblasts (HDFs) retrieved from skin samples of neonatal (No. GM21811, Coriell Institute; No. DFM021711A, Zen Bio) and octogenarian (No. AG07135; AG13993; AG09271; AG10884; all from Coriell Institute) were used. All donors were reported as “healthy”. For all experiments, HDFs were seeded at 1x10^4 cells per cm2 of growth area in minimal essential medium Eagle-Earle (MEM) supplemented with 15% fetal bovine serum (FBS), 2 mM L-glutamine, and 1x antibiotic-antimycotic (all from Gibco, Thermo Fisher Scientific). Only early passage dividing fibroblasts (up to passage 3-5) with cumulative population doubling level PDL < 24 were used. […]
In fluorescence microscopy, cells with calcium-stabilized k-fibers or stained for specific kinetochore/centromere-bound proteins (Aurora B/Aim-1, Hec1/Ndc80, MCAK, Plk1, pAuroraB T232 and ACA) were imaged using a Zeiss AxioImager Z1 (Carl Zeiss, Oberkochen, Germany) motorized upright epifluorescence microscope, equipped with an Axiocam MR camera and operated by the Zeiss Axiovision v4.7 software. […]
For image analysis, both live-cell phenotypes (mitotic duration, lagging chromosomes) and fixed-cell experiments (protein intensity, k-fiber intensity, KT distances, FISH, MN counts, cGAS positivity and SA biomarkers) were blindly quantified using ImageJ/Fiji software. […] DNA aggregates co-localizing with cGAS were scored as MN positive for cGAS. […]

[6] = test system: elderly human dermal fibroblasts (HDF); test: Interphase FISH aneusomy index of chromosomes 7, 12 and 18; details: 1 µM
Procedure: as §1
For FISH, MN counts, cGAS immunofluorescence and SA biomarkers, images were captured with the IN Cell Analyzer 2000 (GE Healthcare, UK) equipped with a Photometrics CoolSNAP K4 camera and driven by the GE IN Cell Analyzer 2000 v5.2 software, using a Nikon 20x/0.45 NA Plan Fluor objective and a Nikon 40x/0.95 NA Plan Fluor objective, respectively.
1 µM of UMK57 was used to enhance kinesin-13 activity during the time periods indicated for each experiment.
(§4) FISH was used to score aneusomy indexes (Interphase FISH; FIGS. 4D, 5C) and chromosome mis-segregation (MS) rates. MS rates were scored by Cyto-D FISH (FIGS. 4E and 5D), or by FISH on STLC-washed-out fibroblasts (FIGS. 1G,H). […]

[7] = test system: elderly human dermal fibroblasts (HDF); test: SA-β-galactosidase activity assay; details: 1 µM
Procedure: as §1, §2

[8] = test system: elderly human dermal fibroblasts (HDF); test: Cyto-D FISH chromosome mis-segregation in cytokinesis-blocked binucleated (BN) cells; details: 1 µM
Procedure: as §1
Proteasome inhibitor MG-132 (474790, EMD Millipore) was used at 5 µM for 2 hrs to arrest cells at the metaphase stage. Cytochalasin D (C8273, Sigma-Aldrich) was used at 1 µM for 24 hrs to block cytokinesis. Fibroblasts were treated with 2.5 µM STLC (2191, TOCRIS) for 5 hrs to inhibit kinesin-5 activity and induce monopolar spindles, followed by a washout into fresh medium with 500 nM of Aurora kinase B inhibitor ZM447439 (S1103, Selleckchem) to potentiate chromosome segregation errors. […]
as §4

Cc1ccc(-c2csc3ncnc(N4CCCC4)c23)cc1 [UMK57, 4-Pyrrolidin-1-yl-5-p-tolyl-thieno[2,3-d] pyrimidine]
percentage of cells exhibiting the senescence biomarkers 53bp1+p21 ([1]; 24-hour treatment (FIG. 4G)): partially rescue | senescence markers: 53BP1/p21 positive cells ([1]; 96 hrs (FIG. 5E)): partial rescue | MN (micronuclei) levels [2]: partly decreased | effect on the mitotic progression of neonatal cultures [3]: no noticeable effect | mitotic delay of elderly cells ([4]; 1 µM, 96-hour treatment (FIG. 5A)): rescued | concentration sufficient to rescue the increased mitotic duration in elderly cells ([4]; increasing concentrations, 24-hour time-lapse (FIG. 4A)): 1 µM | number of stable k-MT attachments in metaphase (calcium-stable k-fiber intensity) ([5]; 24 hrs (FIG. 4B,C)): decreases the number of stable k-MT attachments in metaphase | k-fiber intensity levels in metaphase ([5]; 96 hours (FIG. 5B)): decreased k-fiber intensity levels | levels of aneuploidy (aneusomy index, interphase FISH) ([6]; 24 hrs (FIG. 4D)): decreases the levels of aneuploidy | aneuploidy (interphase FISH) ([6]; 96 hours (FIG. 5C)): inhibited | percentage of cells exhibiting SA-β-galactosidase activity ([7]; 24-hour treatment (FIG. 4H)): partially rescue | senescence markers: SA-β-gal positive cells ([7]; 96 hrs (FIG. 5F)): partial rescue | chromosome mis-segregation rate in binucleated (BN) cells ([8]; 24 hrs, cytochalasin D (FIG. 4E)): decreases | chromosome mis-segregation (BN cells FISH) ([8]; 96 hours (FIG. 5D)): inhibited
